# BindingDB's records for doi:10.1128/AAC.00386-06 (University of Connecticut At Storrs, 2006)
# Molecular target: T1, Dihydrofolate reductase (Bacillus cereus (strain ATCC 14579 / DSM 31 / CCUG 7414 / JCM 2152 / NBRC 15305 / NCIMB 9373 / NCTC 2599 / NRRL B-3711), UniProt Q81E04)
# T1 sequence (Q81E04 whole entry): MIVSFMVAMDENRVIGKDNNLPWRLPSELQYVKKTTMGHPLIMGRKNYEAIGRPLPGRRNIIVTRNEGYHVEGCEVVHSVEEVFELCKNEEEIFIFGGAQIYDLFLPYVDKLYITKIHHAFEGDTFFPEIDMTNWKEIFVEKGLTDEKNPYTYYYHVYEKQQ
# Assay: In Vitro Inhibition Assay
# Conditions: pH 7; 25 °C
# Method: Enzyme activity assays were performed by monitoring the rate of enzyme-dependent NADPH consumption at an absorbance of 340 nm over a period of several minutes. After an incubation period of 5 min in the presence or absence of the inhibitor, the reaction was initiated with the addition of dihydrofolate. The reactions were performed a minimum of four times to determine the average rate and 50% inhibitory concentration values.
row,SMILES,IC50 [µM]
1,"Nc1nc(N)c2nc(CN3c4ccccc4C=Cc4ccccc43)cnc2n1 [6-{2-azatricyclo[9.4.0.0^{3,8}]pentadeca-1(11),3(8),4,6,9,12,14-heptaen-2-ylmethyl}pteridine-2,4-diamine]",16.7
2,COc1ccc(CCCCCC(=O)O)cc1Cc1cnc(N)nc1N,150
3,"CCOC(=O)CCCOc1ccc(OC)c(Cc2cnc3nc(N)nc(N)c3c2C)c1 [2,4-diamino-5-deazapteridine, 7]",0.88
4,"COc1ccc(OCCCCCC(=O)O)cc1Cc1cnc2nc(N)nc(N)c2c1C [2,4-diamino-5-deazapteridine, 6]",0.51
5,"COc1ccc(C#CCCCCC(=O)O)cc1Cc1cnc2nc(N)nc(N)c2c1C [2,4-diamino-5-deazapteridine, 2]",0.27
6,"Nc1nc(N)c2nc(CNc3ccc4c(Cl)cc(Cl)cc4c3)cnc2n1 [6-{[(5,7-dichloronaphthalen-2-yl)amino]methyl}pteridine-2,4-diamine]",7.58
7,"COc1cc(CCc2c[nH]c3nc(N)nc(N)c23)cc(OC)c1OC [5-[2-(3,4,5-trimethoxyphenyl)ethyl]-7H-pyrrolo[2,3-d]pyrimidine-2,4-diamine]",252
8,"CN(Cc1cnc2nc(N)nc(N)c2n1)c1ccc2cc(Cl)ccc2c1 [6-{[(6-chloronaphthalen-2-yl)(methyl)amino]methyl}pteridine-2,4-diamine]",2.26
9,"COc1ccc(OCCCC(=O)O)cc1Cc1cnc2nc(N)nc(N)c2c1C [4-[3-({2,4-diamino-5-methylpyrido[2,3-d]pyrimidin-6-yl}methyl)-4-methoxyphenoxy]butanoic acid]",0.6
10,"COc1ccc(C#CCCCC(=O)O)cc1Cc1cnc2nc(N)nc(N)c2c1C [6-[3-({2,4-diamino-5-methylpyrido[2,3-d]pyrimidin-6-yl}methyl)-4-methoxyphenyl]hex-5-ynoic acid]",1.9
11,"Cc1nc2nc(N)nc(N)c2nc1CN(C)c1ccc2c(Cl)cc(Cl)cc2c1 [6-{[(5,7-dichloronaphthalen-2-yl)(methyl)amino]methyl}-7-methylpteridine-2,4-diamine]",> 1000
12,"COc1ccc(OCCCCC(=O)O)cc1Cc1cnc2nc(N)nc(N)c2c1C [2,4-diamino-5-deazapteridine, 5]",1.67
13,"COc1cc(NCc2ccc3nc(N)nc(N)c3c2)c(Br)c(OC)c1OC [6-{[(2-bromo-3,4,5-trimethoxyphenyl)amino]methyl}quinazoline-2,4-diamine]",1.1
14,"Nc1nc(N)c2nc(CNc3ccc4cc(Cl)c(Cl)cc4c3)cnc2n1 [6-{[(6,7-dichloronaphthalen-2-yl)amino]methyl}pteridine-2,4-diamine]",4.82
15,"COc1ccc(I)cc1Cc1cnc(N)nc1N [5-[(5-iodo-2-methoxyphenyl)methyl]pyrimidine-2,4-diamine]",37.3
16,"Nc1nc(N)c2nc(CNc3ccc4cc(Cl)ccc4c3)cnc2n1 [6-{[(6-chloronaphthalen-2-yl)amino]methyl}pteridine-2,4-diamine]",6.32
17,"CCOC(=O)CCCCCOc1ccc(OC)c(Cc2cnc3nc(N)nc(N)c3c2C)c1 [ethyl 6-[3-({2,4-diamino-5-methylpyrido[2,3-d]pyrimidin-6-yl}methyl)-4-methoxyphenoxy]hexanoate]",1.85
18,"CN(Cc1cnc2nc(N)nc(N)c2n1)c1ccc2c(Cl)cc(Cl)cc2c1 [6-{[(5,7-dichloronaphthalen-2-yl)(methyl)amino]methyl}pteridine-2,4-diamine]",17.6
19,"Nc1nc(N)c2c(ccc3c4ccccc4ccc32)n1 [4,6-diazatetracyclo[8.8.0.0^{2,7}.0^{11,16}]octadeca-1(10),2,4,6,8,11(16),12,14,17-nonaene-3,5-diamine]",> 1000
20,"CCOC(=O)CCCCOc1ccc(OC)c(Cc2cnc3nc(N)nc(N)c3c2C)c1 [ethyl 5-[3-({2,4-diamino-5-methylpyrido[2,3-d]pyrimidin-6-yl}methyl)-4-methoxyphenoxy]pentanoate]",0.35
21,COc1ccc(C#CCCCCC(=O)O)cc1Cc1cnc(N)nc1N,69.3
